Earlier results in patent US20200093804A1, “PHARMACEUTICAL COMPOSITION OF EVEROLIMUS” (INTAS PHARMACEUTICALS LTD., priority 2017, published 2020).

Details: from literature

## CO[C@H]1C[C@@H]2CC[C@@H](C)[C@@](O)(O2)C(=O)C(=O)N2CCCC[C@H]2C(=O)O[C@H]([C@H](C)C[C@@H]2CC[C@@H](OCCO)[C@H](OC)C2)CC(=O)[C@H](C)/C=C(\C)[C@@H](O)[C@@H](OC)C(=O)[C@H](C)C[C@H](C)/C=C/C=C/C=C/1C [Everolimus, (1R,9S,12S,15R,16E,18R,19R,21R,23S,24E,26E,28E,30S,32S,35R)-1,18dihydroxy-12-{(1R)-2-[(1S,3R,4R)-4-(2-hydroxyethoxy)-3-methoxycyclohexyl]-1-methylethyl}-19,30-dimethoxy15,17,21,23,29,35-hexamethyl-11, 36-dioxa-4-aza-tricyclo[30.3.1.04,9]hexatriaconta-16,24,26,28-tetraene-2,3,10, 14,20pentaone]
  solubility: poor
  stability: poor
